Assay results from patent publication US11970456B1, “Synthesis of thiosemicarbazide analogue as inhibitor of tyrosinase, skin hyperpigmentation, and fruit and/or vegetable browning” (KING SAUD UNIVERSITY, priority 2023, dated 2024).
Entries after “also recorded” stand apart in the source; their conditions may differ.

What was measured:
[1] = tested on: T1, mushroom tyrosinase (EC 1.14.18.1); assay: Tyrosinase inhibition assay and kinetics (o-diphenolase activity, L-DOPA substrate); assay type: biochemical, Agaricus bisporus (mushroom); conditions: for Type of inhibition: Lineweaver-Burk and Dixon plots
T1 construct: 22 U of mushroom tyrosinase (EC 1.14.18.1)
Procedure: The assay mixture contained sodium phosphate buffer (50 mM; pH 6.8), 22 U of mushroom tyrosinase (EC 1.14.18.1; Sigma Chemical Co., St. Louis, USA), L-DOPA substrate (1 mM), and Compound 2 dissolved in DMSO. The final concentration of DMSO in the assay mixture was 0.5%. The o-diphenolase inhibitory activity of Compound 2 was first screened at a final concentration of 30 μM using Ultrospec 2100 pro spectrophotometer (Amersham Biosciences, UK).
The kinetic assays included a range of substrate (0.25-2.0 mM) and Compound 2 concentrations (0.25, 0.5, 1.0, 2.0 μM). The […] was first incubated with the […] for 15 min. at 25° C. followed by addition of substrate. The reaction was continuously monitored in the spectrophotometer and the enzyme velocity was measured from the linear portion of the curve (7). The kinetics data were analyzed by Grafit 7.0.3 software (Erithacus Software Ltd., Staines, UK) utilizing the Lineweaver Burk plot {1/v versus 1/[S]} and the Ki values were calculated using the Dixon plot {1/v versus [I]}.

Row | SMILES | fold more potent than kojic acid (by Ki) ([1]; Ki of kojic acid versus Ki of the compound) [fold] | Type of inhibition [1] | IC50 ([1]; o-diphenolase activity, L-DOPA substrate, 25° C., pH 6.8, read-out: IC50 (μM ± SEM)) [µM] | Ki ([1]; o-diphenolase activity, L-DOPA substrate, Dixon plot, 25° C., pH 6.8, read-out: Ki (μM ± SEM)) [µM] | melting point [°C]
1 | NC(=S)N/N=C/c1ccc2[nH]ncc2c1 [Compound 2, 2-((1H-indazol-5-yl)methylene)hydrazinecarbothioamide] | 52 | competitive inhibitor; also recorded: competitive inhibition | 0.228 | 0.0843 | 258 to 262
2 | O=c1cc(CO)occ1O [Kojic acid, kojic acid, reference compound] |  | Competitive |  |  | 
